A short description of series [1]: Stability of ethambutol in the presence of isoniazid. Format: physicochemical. An excerpt:
765/Del/2003. However, a disadvantage associated therewith is that due to its unstability properties, ethambutol would degrade.

In a further series the test system is M. tuberculosis. The note with it: cited from earlier work.

This is an account of results in US20100204243A1, “Process for the Preparation of Poly DL-Lactide-Co-Glycolide Nanoparticles Having Antitubercular Drugs Encapsulated Therein” (priority 2005, published 2010).

≈ marks a conversion by molar mass, not a printed value.

As to `CC[C@@H](CO)NCCN[C@@H](CC)CO` [ethambutol], the “stability in the presence of isoniazid” value in series [1] is recorded as “highly unstable”. Besides, in the series on M. tuberculosis, the “minimum inhibitory concentration (MIC)” value was 1.5 µg/mL (≈ 7.34 µM).
